From patent US20230265116A1, “DEGRADATION OF (EGFR) BY CONJUGATION OF EGFR INHIBITORS WITH E3 LIGASE LIGAND AND METHODS OF USE” (BEIGENE, LTD., priority 2020, published 2023)

Key:
[1] = target: T1, EGFR L858R/T790M/C797S (BaF3-LTC cells) (Homo sapiens, UniProt P00533, C797S/L858R/T790M); assay: EGFR degradation HTRF assay, BaF3-LTC cells; format: cell-based; settings: BaF3-LTC, 16h treatment; for Dmax: maximum percentage of degradation, read-out: LTC Dmax (%); for DC50: read-out: LTC DC50
T1 construct: expressed in transfected cells; host or cells: BaF3
T1 sequence (P00533 25-1210 T790M/C797S/L858R): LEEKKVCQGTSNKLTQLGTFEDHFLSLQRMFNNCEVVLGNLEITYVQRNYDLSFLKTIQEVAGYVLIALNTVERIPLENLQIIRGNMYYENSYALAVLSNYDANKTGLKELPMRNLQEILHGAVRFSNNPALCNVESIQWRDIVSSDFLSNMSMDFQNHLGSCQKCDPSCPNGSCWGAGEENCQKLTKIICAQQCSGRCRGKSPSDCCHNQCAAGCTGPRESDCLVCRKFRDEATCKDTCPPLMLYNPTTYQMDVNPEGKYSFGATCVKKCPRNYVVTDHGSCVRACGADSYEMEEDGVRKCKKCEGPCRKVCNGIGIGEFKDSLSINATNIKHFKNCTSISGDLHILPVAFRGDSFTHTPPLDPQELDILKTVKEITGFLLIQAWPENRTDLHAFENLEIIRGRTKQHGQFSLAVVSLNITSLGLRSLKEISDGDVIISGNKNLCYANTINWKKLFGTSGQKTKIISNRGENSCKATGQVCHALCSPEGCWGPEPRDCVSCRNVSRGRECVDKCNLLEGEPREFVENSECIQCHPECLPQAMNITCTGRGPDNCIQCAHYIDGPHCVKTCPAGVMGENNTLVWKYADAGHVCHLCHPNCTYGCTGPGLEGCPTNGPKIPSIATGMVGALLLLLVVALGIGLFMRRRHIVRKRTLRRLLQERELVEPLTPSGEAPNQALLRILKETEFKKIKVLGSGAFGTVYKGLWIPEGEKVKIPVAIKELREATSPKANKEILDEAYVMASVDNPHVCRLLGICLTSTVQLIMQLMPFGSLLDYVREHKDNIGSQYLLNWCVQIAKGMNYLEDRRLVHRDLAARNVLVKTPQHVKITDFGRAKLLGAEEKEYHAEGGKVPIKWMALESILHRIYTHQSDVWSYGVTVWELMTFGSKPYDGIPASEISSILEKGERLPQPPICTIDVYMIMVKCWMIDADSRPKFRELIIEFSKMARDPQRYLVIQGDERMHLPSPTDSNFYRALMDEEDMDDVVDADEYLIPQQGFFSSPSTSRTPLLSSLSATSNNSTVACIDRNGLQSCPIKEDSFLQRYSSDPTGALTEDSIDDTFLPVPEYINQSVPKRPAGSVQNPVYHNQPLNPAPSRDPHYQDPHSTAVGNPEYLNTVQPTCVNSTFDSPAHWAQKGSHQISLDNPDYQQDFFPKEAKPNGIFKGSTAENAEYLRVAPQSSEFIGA
Method in brief: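 EGFR remaining after a 16 h, 37 °C exposure (8 doses, 5-fold steps from 10 uM final, 0.2% DMSO) was quantified by HTRF antibodies in cell lysate. Percent inhibition relative to DMSO control was fitted by four-parameter logistic to give DC50; Dmax denotes maximal degradation.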

[2] = tested on: EGFR Del19/T790M/C797S (BaF3-DTC cells); assay: EGFR degradation HTRF assay, BaF3-DTC cells; format: cell-based; settings: 16h treatment; for DTC Dmax (%): maximum percentage of degradation; for DC50: read-out: DTC DC50
Method in brief: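 BaF3 (WT, Del19/T790M/C797S) and HCC827 cells exposed 16 h at 37 °C, 5% CO2 to compounds in 0.2% DMSO medium, 8 doses from 10 uM top, 5-fold steps. Lysates read by HTRF (665/620 nm); degradation % vs DMSO control, DC50 from four-parameter fit, Dmax as maximal degradation.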

SMILES | Dmax [1] [%] | DC50 [1] [nM] | DC50 [2] [nM] | DTC Dmax (%) [2] [%]
CCc1cc(Nc2ncc(Br)c(Nc3ccc4nccnc4c3P(C)(C)=O)n2)c(OC)cc1N1CCC(N2CCN(C3CN(c4ccc(C5CCC(=O)NC5=O)cc4)C3)CC2)CC1 (stereo not drawn) [Example 250] | 73.8 | 24.8 | 11.1 | 75.19
CCc1cc(Nc2ncc(Br)c(Nc3ccc4nccnc4c3P(C)(C)=O)n2)c(OC)cc1N1CCC(N2CCN(CC3CN(c4ccc(C5CCC(=O)NC5=O)c(C#N)c4)C3)CC2)CC1 (stereo not drawn) [Example 251, 5-(3-((4-(1-(4-((5-bromo-4-((5-(dimethylphosphoryl)quinoxalin-6-yl)amino)pyrimidin-2-yl)amino)-2-ethyl-5-methoxyphenyl)piperidin-4-yl)piperazin-1-yl)methyl)azetidin-1-yl)-2-(2,6-dioxopiperidin-3-yl)benzonitrile] | 87 | 2.93 | 7.72 | 82.01
CCc1cc(Nc2ncc(Br)c(Nc3ccc4nccnc4c3P(C)(C)=O)n2)c(OC)cc1N1CCC(N2CCN(CC3CN(c4cc(F)c(C5CCC(=O)NC5=O)c(F)c4)C3)CC2)CC1 (stereo not drawn) [Example 253, 3-(4-(3-((4-(1-(4-((5-bromo-4-((5-(dimethylphosphoryl)quinoxalin-6-yl)amino)pyrimidin-2-yl)amino)-2-ethyl-5-methoxyphenyl)piperidin-4-yl)piperazin-1-yl)methyl)azetidin-1-yl)-2,6-difluorophenyl)piperidine-2,6-dione] | 86.3 | 19.8 | 7.09 | 94.79
CCc1cc(Nc2ncc(Br)c(Nc3ccc4nccnc4c3P(C)(C)=O)n2)c(OC)cc1N1CCC(N2CCN(CC3CCN(c4cccc(C5CCC(=O)NC5=O)c4)CC3)CC2)CC1 (stereo not drawn) [Example 264, 3-(3-(4-((4-(1-(4-((5-bromo-4-((5-(dimethylphosphoryl)quinoxalin-6-yl)amino)pyrimidin-2-yl)amino)-2-ethyl-5-methoxyphenyl)piperidin-4-yl)piperazin-1-yl)methyl)piperidin-1-yl)phenyl)piperidine-2,6-dione] | 86.2 | 61 | 17.1 | 74.58
COc1cc(N2CCC(N3CC4CC(C3)N4CCC3CCN(c4cc(F)c(C5CCC(=O)NC5=O)c(F)c4)CC3)CC2)c(C)cc1Nc1ncc(Br)c(Nc2ccc3nccnc3c2P(C)(C)=O)n1 (stereo not drawn) [Example 266, 3-(4-(4-(2-(3-(1-(4-((5-bromo-4-((5-(dimethylphosphoryl)quinoxaline-6-yl)amino)pyrimidin-2-yl)amino)-5-methoxy-2-methylphenyl)piperidin-4-yl)-3,6-diazabicyclo[3.1.1]heptan-6-yl)ethyl)piperidin-1-yl)-2,6-difluorophenyl)piperidine-2,6-dione] | 73.6 | 81.9 | 50.3 | 83.88
COc1cc(N2CCC(N3C[C@H]4C[C@@H]3CN4CCC3CCN(c4cc(F)c(C5CCC(=O)NC5=O)c(F)c4)CC3)CC2)c(C)cc1Nc1ncc(Br)c(Nc2ccc3nccnc3c2P(C)(C)=O)n1 (stereo partly drawn) [Example 267, 3-(4-(4-(2-((1R,4R)-5-(1-(4-((5-bromo-4-((5-(dimethylphosphoryl)quinoxalin-6-yl)amino)pyrimidin-2-yl)amino)-5-methoxy-2-methylphenyl)piperidin-4-yl)-2,5-diazabicyclo[2.2.1]heptan-2-yl)ethyl)piperidin-1-yl)-2,6-difluorophenyl)piperidine-2,6-dione] | 90.3 | 47.7 | 17.9 | 93.96

Now from value to compound, other results behind:

Dmax [1] [%] | DC50 [1] [nM] | DC50 [2] [nM] | SMILES | DTC Dmax (%) [2] [%]
87.6 | 4.6 | 3.26 | CCc1cc(Nc2ncc(Br)c(Nc3ccc4nccnc4c3P(C)(C)=O)n2)c(OC)cc1N1CCC(N2CCN(C(=O)[C@@H]3CCN(c4ccc5c(c4)CN(C4CCC(=O)NC4=O)C5=O)C3)CC2)CC1 (stereo partly drawn) [Example 241, 3-(5-((R)-3-(4-(1-(4-((5-bromo-4-((5-(dimethylphosphoryl)quinoxalin-6-yl)amino)pyrimidin-2-yl)amino)-2-ethyl-5-methoxyphenyl)piperidin-4-yl)piperazine-1-carbonyl)pyrrolidin-1-yl)-1-oxoisoindolin-2-yl)piperidine-2,6-dione] | 89.74
89.3 | 13 | 5.6 | CCc1cc(Nc2ncc(Br)c(Nc3ccc4nccnc4c3P(C)(C)=O)n2)c(OC)cc1N1CCC(N2CCN(CC3CCN(c4ccc5c(c4)CN(C4CCC(=O)NC4=O)C5=O)CC3)CC2)CC1 (stereo not drawn) [Example 244, 3-(5-(4-((4-(1-(4-((5-bromo-4-((5-(dimethylphosphoryl)quinoxalin-6-yl)amino)pyrimidin-2-yl)amino)-2-ethyl-5-methoxyphenyl)piperidin-4-yl)piperazin-1-yl)methyl)piperidin-1-yl)-1-oxoisoindolin-2-yl)piperidine-2,6-dione] | 88.74
81.4 | 30.1 | 11.9 | CCc1cc(Nc2ncc(Br)c(Nc3ccc4nccnc4c3P(C)(C)=O)n2)c(OC)cc1N1CCC(N2CCN(C[C@H]3C[C@H](N(C)c4ccc(C5CCC(=O)NC5=O)cc4)C3)CC2)CC1 (stereo partly drawn) [Example 245, 3-(4-(((1r,3r)-3-((4-(1-(4-((5-bromo-4-((5-(dimethylphosphoryl)quinoxalin-6-yl)amino)pyrimidin-2-yl)amino)-2-ethyl-5-methoxyphenyl)piperidin-4-yl)piperazin-1-yl)methyl)cyclobutyl)(methyl)amino)phenyl)piperidine-2,6-dione] | 87.52
91 | 4.47 | 1.51 | CCc1cc(Nc2ncc(Br)c(Nc3ccc4nccnc4c3P(C)(C)=O)n2)c(OC)cc1N1CCC(N2CCN(C(=O)C3CN(c4ccc5c(c4)CN(C4CCC(=O)NC4=O)C5=O)C3)CC2)CC1 (stereo not drawn) [Example 246, 3-(5-(3-(4-(1-(4-((5-bromo-4-((5-(dimethylphosphoryl)quinoxalin-6-yl)amino)pyrimidin-2-yl)amino)-2-ethyl-5-methoxyphenyl)piperidin-4-yl)piperazine-1-carbonyl)azetidin-1-yl)-1-oxoisoindolin-2-yl)piperidine-2,6-dione] | 93.85
89.4 | 9.39 | 4.41 | CCc1cc(Nc2ncc(Br)c(Nc3ccc4nccnc4c3P(C)(C)=O)n2)c(OC)cc1N1CCC(N2CCN(CCNc3cccc4c3CN(C3CCC(=O)NC3=O)C4=O)CC2)CC1 (stereo not drawn) [Example 248, 3-(4-((2-(4-(1-(4-((5-bromo-4-((5-(dimethylphosphoryl)quinoxalin-6-yl)amino)pyrimidin-2-yl)amino)-2-ethyl-5-methoxyphenyl)piperidin-4-yl)piperazin-1-yl)ethyl)amino)-1-oxoisoindolin-2-yl)piperidine-2,6-dione] | 89.62
86.7 | 28.6 | 3.01 | CCc1cc(Nc2ncc(Br)c(Nc3ccc4nccnc4c3P(C)(C)=O)n2)c(OC)cc1N1CCC(N2CCN(CCN(C)c3ccc4c(c3)C(=O)N(C3CCC(=O)NC3=O)C4)CC2)CC1 (stereo not drawn) [Example 249, 3-(6-((2-(4-(1-(4-((5-bromo-4-((5-(dimethylphosphoryl)quinoxalin-6-yl)amino)pyrimidin-2-yl)amino)-2-ethyl-5-methoxyphenyl)piperidin-4-yl)piperazin-1-yl)ethyl)(methyl)amino)-1-oxoisoindolin-2-yl)piperidine-2,6-dione] | 90.4
80.8 | 34.8 | 17.1 | CCc1cc(Nc2ncc(Br)c(Nc3ccc4nccnc4c3P(C)(C)=O)n2)c(OC)cc1N1CCC(N2CCN(CC3CN(c4ccc(C5CCC(=O)NC5=O)c(F)c4)C3)CC2)CC1 (stereo not drawn) [Example 252, 3-(4-(3-((4-(1-(4-((5-bromo-4-((5-(dimethylphosphoryl)quinoxalin-6-yl)amino)pyrimidin-2-yl)amino)-2-ethyl-5-methoxyphenyl)piperidin-4-yl)piperazin-1-yl)methyl)azetidin-1-yl)-2-fluorophenyl)piperidine-2,6-dione] | 85.86
91.8 | 7.84 | 1.78 | CCc1cc(Nc2ncc(Br)c(Nc3ccc4nc(C)ccc4c3P(C)(C)=O)n2)c(OC)cc1N1CCC(N2CCN(CCN(C)c3cccc4c3CN(C3CCC(=O)NC3=O)C4=O)CC2)CC1 (stereo not drawn) [Example 256, 3-(4-((2-(4-(1-(4-((5-bromo-4-((5-(dimethylphosphoryl)-2-methylquinolin-6-yl)amino)pyrimidin-2-yl)amino)-2-ethyl-5-methoxyphenyl)piperidin-4-yl)piperazin-1-yl)ethyl)(methyl)amino)-1-oxoisoindolin-2-yl)piperidine-2,6-dione] | 94.38
90.7 | 17.4 | 3.94 | CCc1cc(Nc2ncc(Br)c(Nc3ccc4nc(C)ccc4c3P(C)(C)=O)n2)c(OC)cc1N1CCC(N2CCN(CCc3ccc4nn(C5CCC(=O)NC5=O)cc4c3)CC2)CC1 (stereo not drawn) [Example 257, 3-(5-(2-(4-(1-(4-((5-bromo-4-((5-(dimethylphosphoryl)-2-methylquinolin-6-yl)amino)pyrimidin-2-yl)amino)-2-ethyl-5-methoxyphenyl)piperidin-4-yl)piperazin-1-yl)ethyl)-2H-indazol-2-yl)piperidine-2,6-dione] | 93.75
